Measurements as given in patent US10526579B2, “Podocyte cultures and uses thereof” (RUSH UNIVERSITY MEDICAL CENTER, priority 2013, dated 2020).

How the values were obtained:
[1] = tested on: cultured podocytes; experiment: High-content F-actin stress fiber assay in cultured differentiated podocytes (phalloidin stain); type: cell-based, murine; details: 48 h at 37° C., 96-well plates
Protocol: (§1) A dose-response curve showing the effects of increasing concentration of podocyte injuring drug puromycin aminonucleoside (PAN) on various cellular parameters, including the intensity and the number of actin fibers, in cultured podocytes. Differentiated podocytes were cultured in 96-well multiwell plates. Cells were either kept in normal cell culture media or were treated with increasing concentration of PAN for 48 h at 37° C. Subsequently, the cells were fixed with paraformaldehyde and the filamentous actin (F-actin) fibers stained using Alexa Fluor 594-labeled phalloidin. Cells were imaged using PerkinElmer OPERA High-content screening microscope and the images were analyzed using PerkinElmer Columbus analysis system to count F-actin fibers per cell in each well of the multiwell plate. FIGS. 4A and 4B show representative images of untreated (A) and PAN-treated (B) podocytes. […] These two parameters also gave a reproducible IC50 value for PAN as an in vitro podocyte damaging agent. Each data point represents average F-actin fiber count per cell (from approximately 500-2000 cells/well) from a single well.
FIG. 5. […] Cells were imaged using PerkinElmer OPERA High-content screening microscope and the images were analyzed using PerkinElmer Columbus analysis system to count F-actin fibers per cell in each well of the multiwell plate. […]

[2] = tested on: cultured podocytes; experiment: High-content focal adhesion assay in cultured differentiated podocytes (anti-paxillin stain); type: cell-based, murine; details: 48 h at 37° C., 96-well plates
Protocol: as §1, with “FIG. 6. […]” for “A dose-response curve showing the effects of increasing concentration of podocyte injuring drug puromycin aminonucleoside (PAN) on various cellular parameters, including the intensity and the number of actin fibers, in cultured podocytes.”, “focal adhesions were” for “filamentous actin (F-actin) fibers”, “an anti-paxillin antibody.” for “Alexa Fluor 594-labeled phalloidin.”, “6A” for “4A”, “6B” for “4B”, “average” for “average F-actin fiber”
FIG. 7. Focal adhesion protection with Mizouribine. […] Cells were imaged using PerkinElmer OPERA High-content screening microscope and the images were analyzed using PerkinElmer Columbus analysis system to count F-actin fibers per cell in each well of the multiwell plate. […] The method allowed quantitative assessment of podocyte protection in a dose-response fashion using these parameters based on the podocyte focal adhesions when treated with the compounds PAN and mizouribine. […]

[3] = co-treatment with PAN and increasing concentration of mizouribine
[4] = increasing concentration of PAN

Row | Structure (SMILES) | protection of podocyte actin fibers from PAN damage [1, 3] | protection of podocyte focal adhesions from PAN damage [2, 3] | effect on intensity and number of actin fibers (relative spot to background intensity; whole cell fibers - number of objects) [1, 4] | effect on number and intensity of focal adhesions (relative spot to background intensity; FA - number of objects) [2, 4]
1 | NC(=O)c1ncn([C@@H]2O[C@H](CO)[C@@H](O)[C@H]2O)c1O [Mizouribine, mizouribine] | dose-dependently prevents podocyte damage | protects the focal adhesions from PAN damage |  | 
2 | CN(C)c1ncnc2c1ncn2[C@@H]1O[C@H](CO)[C@@H](N)[C@H]1O [PAN, puromycin aminonucleoside] |  |  | podocyte damage in a dose-response fashion | leads to reduced focal adhesions
